Columns and labels:
[1] = biological target: T1, HCV 1b NS3-NS4A heterodimer protein (UniProt P26662); test: In vitro HCV NS3 protease assay (fluorogenic depsipeptide), genotype 1b; type: biochemical, HCV genotype 1b; settings: read-out: IC50 HCV-1b; HCV 1b NS3-NS4A protease
T1 construct: fused on or other part: 28 extra N-terminal residues with a hexahistidine tag and an rTEV cleavage site
From the text: For production of the HCV genotype 1b NS3-NS4A heterodimer protein, a full-length HCV cDNA was cloned by RT-PCR using RNA extracted from the serum of an HCV genotype 1b infected individual (provided by Dr. Bernard Willems, Hôpital St-Luc, Montréal, Canada). […] For HCV genotype 1a, the DNA encoding NS3-NS4A heterodimer protein was PCR-amplified (forward primer: 5′[sequence]3′ (SEQ ID No.3); reverse primer: 5′[sequence]3′ (SEQ ID No.4)) from the HCV genotype la strain H77 (provided by ViroPharma Inc., Exton, Pa., U.S.) and subcloned as described above. The cloning into the pFastBac™ HTa baculovirus expression vector generated a recombinant fusion protein containing an additional N-terminal 28 residues that comprised a hexahistidine tag and a rTEV protease cleavage site. The Bac-to-Bac™ baculovirus expression system (Gibco/BRL) was used to produce the recombinant baculovirus for protein expression.
His-tagged NS3-NS4A heterodimer protease was expressed by infecting Sf21 insect cells (Invitrogen) at a density of 10^6 cells/mL with the recombinant baculovirus at a multiplicity of infection of 0.1-0.2 at 27° C. The infected culture was harvested 48 to 64 h later by centrifugation at 4° C. The cell pellet was homogenized in 50 mM sodium phosphate, pH 7.5, 40% glycerol (w/v), 2 mM β-mercaptoethanol. His-NS3-NS4A heterodimer protease was then extracted from the cell lysate with 1.5% NP-40, 0.5% Triton X-100, 0.5M NaCl, and a DNase treatment. […]
The fluorescence was monitored using the BMG POLARstar Galaxy 96-well plate reader with an excitation filter of 320 nm, and an emission filter of 405 nm. The level of inhibition (% inhibition) of each well containing test compound was calculated with the following equation (FU=fluorescence unit): [formula]
The calculated % inhibition values were then used to determine IC50, slope factor (n) and maximum inhibition (Imax) by the non-linear regression routine NLIN procedure of SAS using the following equation: [formula]

[2] = system: HCV replicon 1a; test: Cell-based HCV 1a RNA replicon assay; settings: Hepatitis C virus, 72 h; Huh-7-derived replicon cells, 3 day incubation, HCV RNA by RT-PCR
Protocol: These cells were used to establish a sensitive HCV RNA replication cell-based assay for testing candidate test compounds.
Huh7 cells that stably maintain a subgenomic HCV replicon were established as previously described (Lohman et al. 1999; WO 02/052015). The cells were seeded into a 96 well cell culture cluster at 1×10^4 cells per well in DMEM complemented with 10% FBS, PenStrep (Life Technologies) and […] Geneticin. Cells were incubated in a 5% CO2 incubator at 37° C. until addition of various concentrations of the test compound.
The test compound was prepared for use in the assay as follows. The test compound in 100% DMSO was added diluted in assay Medium for a final DMSO concentration of 0.5% and the solution was sonicated for 15 min and filtered through a […] Millipore Filter Unit. Serial dilutions of the test compounds were prepared using Assay Medium (containing 0.5% DMSO).
Cell culture medium was aspirated from the 96-well plate containing the cells and the appropriate dilution of test compound in assay medium was transferred to independent wells of the cell culture plate which was incubated at 37° with 5% CO2.
Following a 3 day-incubation period, the cells were washed with PBS and total cellular RNA was extracted with the RNeasy Mini Kit® and Qiashredder® from Qiagen. RNA from each well was eluted in 50 μL of H2O. RNA was quantified by optical density at 260 nm on the Cary 1E® UV-Visible spectrophotometer. The HCV RNA replicon copy number was evaluated by real-time RT-PCR with the Abi Prism® 7700 Sequence Detection System. The TAQMAN E® RT-PCR kit provides a system for the detection and analysis of RNA. Direct detection of the reverse transcription polymerase chain reaction (RT-PCR) product with no downstream processing was accomplished by monitoring the increase in fluorescence of a dye-labeled DNA probe. The nucleotide sequence of both primers and probe was located in the 5′ region of the HCV genome. The replicon copy number was then evaluated using a standard curve made with known amounts of replicon copy (supplemented with 50 ng of wild type Huh-7 RNA) assayed in the same reaction mix. The following thermal cycle parameters were used for the RT-PCR reaction on the ABI Prism® 7700 Sequence Detection System. Conditions were optimized for HCV detection. Quantification is based on the threshold cycle, where the amplification plot crosses a defined fluorescence threshold. Comparison of the threshold cycles provides a highly sensitive measure of relative template concentration in different samples. Monitoring during early cycles, when PCR fidelity is at its highest, provides precise data for accurate quantification. The relative template concentration can be converted to real numbers by using the standard curve of HCV with known number of copy.
The level of inhibition (% inhibition) of each well containing test compound was calculated with the following equation (CN═HCV Replicon copy number): [formula]
The calculated % inhibition values were then used to determine EC50, slope factor (n) and maximum inhibition (Imax) by the non-linear regression routine NLIN procedure of SAS using the following equation: [formula]

[3] = system: GBV-B; test: Inhibition of GBV-B replication in tamarin hepatocytes in culture; type: cell-based
Protocol: Hepatocytes isolated from uninfected tamarins were maintained in culture in defined medium for several days. The cell culture model was as described by Beames et al. 2000. Three days after plating, the cells were infected with GBV-B-containing plasma. After viral adsorption, the virus was removed and the cells were incubated in the presence and absence of candidate test compounds at a concentration of 10 μM. The cells were harvested 7 days post infection. The levels of GBV-B RNA were quantitated from total cellular RNA by a real-time PCR assay using a primer-probe combination that recognized a portion of the GBV-B capsid gene (Beames et al. 2000).

[4] = biological target: T2, HCV genotype 3a NS3-NS4A protease (UniProt Q81258); test: Inhibition constant (Ki) determination, genotype 3a; type: biochemical; settings: read-out: Ki HCV genotype 3a
T2 construct: fused on or other part: 28 extra N-terminal residues with a hexahistidine tag and an rTEV cleavage site
T2 sequence (Q81258 1033-1663): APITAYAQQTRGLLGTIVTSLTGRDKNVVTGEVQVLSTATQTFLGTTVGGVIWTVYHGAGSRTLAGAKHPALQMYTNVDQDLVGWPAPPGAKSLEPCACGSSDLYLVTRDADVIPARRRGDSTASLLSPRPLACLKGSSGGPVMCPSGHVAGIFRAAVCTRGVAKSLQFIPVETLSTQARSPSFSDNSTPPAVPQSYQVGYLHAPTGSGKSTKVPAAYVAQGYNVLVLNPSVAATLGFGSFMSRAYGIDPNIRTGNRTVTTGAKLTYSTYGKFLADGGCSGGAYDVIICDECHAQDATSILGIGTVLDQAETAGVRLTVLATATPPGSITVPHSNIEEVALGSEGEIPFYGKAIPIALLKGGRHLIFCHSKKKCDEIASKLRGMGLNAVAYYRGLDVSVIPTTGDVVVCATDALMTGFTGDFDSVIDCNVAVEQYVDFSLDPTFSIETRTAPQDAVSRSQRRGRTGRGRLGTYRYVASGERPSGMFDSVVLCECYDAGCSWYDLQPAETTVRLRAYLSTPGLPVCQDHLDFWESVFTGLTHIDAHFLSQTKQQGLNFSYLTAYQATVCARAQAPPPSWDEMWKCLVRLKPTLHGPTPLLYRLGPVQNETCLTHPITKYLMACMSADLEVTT

[5] = biological target: T3, HCV genotype 2b NS3-NS4A protease (UniProt P26661); test: Inhibition constant (Ki) determination, genotype 2b; type: biochemical; settings: read-out: Ki HCV genotype 2b
T3 construct: fused on or other part: 28 extra N-terminal residues with a hexahistidine tag and an rTEV cleavage site
T3 sequence (P26661 1031-1661): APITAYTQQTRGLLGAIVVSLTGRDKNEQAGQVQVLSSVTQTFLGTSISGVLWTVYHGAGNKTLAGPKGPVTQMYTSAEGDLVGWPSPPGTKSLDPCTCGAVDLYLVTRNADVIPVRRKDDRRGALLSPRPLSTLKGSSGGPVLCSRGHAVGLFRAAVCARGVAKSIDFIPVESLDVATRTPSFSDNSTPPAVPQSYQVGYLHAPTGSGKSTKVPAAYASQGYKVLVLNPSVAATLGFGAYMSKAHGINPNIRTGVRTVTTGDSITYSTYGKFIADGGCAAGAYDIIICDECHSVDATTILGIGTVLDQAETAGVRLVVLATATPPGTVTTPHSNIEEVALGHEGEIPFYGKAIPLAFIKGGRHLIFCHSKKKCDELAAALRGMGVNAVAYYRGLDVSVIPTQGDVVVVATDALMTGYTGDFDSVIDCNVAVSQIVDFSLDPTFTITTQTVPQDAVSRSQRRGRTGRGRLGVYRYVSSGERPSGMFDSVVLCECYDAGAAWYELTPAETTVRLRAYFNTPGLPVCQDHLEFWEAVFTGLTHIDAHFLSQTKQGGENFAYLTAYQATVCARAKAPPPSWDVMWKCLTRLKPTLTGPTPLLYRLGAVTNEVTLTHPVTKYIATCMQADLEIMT

T1 sequence (P26662 1027-1657, one chain of several): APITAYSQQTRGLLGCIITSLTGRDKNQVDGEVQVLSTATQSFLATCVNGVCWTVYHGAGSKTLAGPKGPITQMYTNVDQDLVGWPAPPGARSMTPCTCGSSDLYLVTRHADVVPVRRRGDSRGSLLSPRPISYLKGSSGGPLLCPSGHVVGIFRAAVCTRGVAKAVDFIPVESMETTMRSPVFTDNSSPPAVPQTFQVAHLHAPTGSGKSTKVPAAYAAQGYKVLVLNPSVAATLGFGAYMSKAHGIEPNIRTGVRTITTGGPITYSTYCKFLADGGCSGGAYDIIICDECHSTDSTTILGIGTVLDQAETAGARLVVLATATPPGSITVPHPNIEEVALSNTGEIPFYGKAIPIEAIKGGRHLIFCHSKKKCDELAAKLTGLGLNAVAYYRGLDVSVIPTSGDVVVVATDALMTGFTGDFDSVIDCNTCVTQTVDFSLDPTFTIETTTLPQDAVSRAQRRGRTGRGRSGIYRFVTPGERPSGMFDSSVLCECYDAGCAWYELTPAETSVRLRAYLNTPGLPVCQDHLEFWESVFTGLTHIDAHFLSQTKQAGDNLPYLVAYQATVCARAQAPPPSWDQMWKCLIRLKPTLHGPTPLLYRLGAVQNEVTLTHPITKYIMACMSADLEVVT

COc1ccc2c(O[C@@H]3C[C@H]4C(=O)N[C@]5(C(=O)O)CC5/C=C\CCCCC[C@H](NC(=O)OC(C)(C)C)C(=O)N4C3)cc(-c3csc(NC(C)=O)n3)nc2c1 (stereo partly shown) [III]
IC50 [1]: 4.2 nM
EC50 [2]: 4.5 nM
inhibition of GBV-B replication (FIG. 7) [3]: dose-dependent inhibition
reduction in the viral RNA levels ([3]; 10 μM, 7 days post infection, g.e./μg RNA): > 3 log

COc1ccc2c(O[C@@H]3C[C@H]4C(=O)N[C@]5(C(=O)O)CC5/C=C\CCCCC[C@H](NC(=O)OC(C)(C)C)C(=O)N4C3)cc(-c3ccccc3)nc2c1 (stereo partly shown) [II]
IC50 [1]: 8.9 nM
EC50 [2]: 34 nM

COc1ccc2c(O[C@@H]3C[C@H]4C(=O)N[C@]5(C(=O)O)CC5/C=C\CCCCC[C@H](NC(=O)OC5CCCC5)C(=O)N4C3)cc(-c3csc(NC(C)C)n3)nc2c1 (stereo partly shown) [IV]
IC50 [1]: 3.4 nM
Ki [4]: 90 nM
Ki [5]: 83 nM
EC50 [2]: 2.1 nM

From patent US20050159345A1 (Boehringer Ingelheim International GmbH, priority 2002, published 2005)
